Measurements reported in ChEMBL document CHEMBL3286241, “Dammarane-type triterpenoids from Gentianella azurea” (J Nat Prod, 2014).

Tested on: RAW264.7
Experiment: Antiinflammatory activity in mouse RAW264.7 cells assessed as inhibition of LPS-induced NO production after 24 hrs by Griess assay
Format: functional, cell-based
Settings: RAW264.7, 24 h

Structure (SMILES) | IC50 [µM]
CC1(C)O[C@](C(=O)O)([C@H]2CC[C@]3(C)[C@@H]2CC[C@@H]2[C@@]4(C)CC[C@H](O[C@@H]5O[C@H](CO)[C@@H](O)[C@H](O)[C@H]5O)[C@](C)(CO)[C@@H]4CC[C@]23C)C[C@H](O)[C@@H]1O [GENTIRIGEOSIDE A] | 6.6
COc1ccc2c(c1)c(CC(=O)O)c(C)n2C(=O)c1ccc(Cl)cc1 [INDOMETHACIN] | 1.25
